Assays:
Hck = target: T1, Hck (Homo sapiens, UniProt P08631); test: Hck enzyme inhibition (Z-LYTE FRET); type: biochemical
T1 construct: purchased Life Technologies
Procedure: (§1) The enzyme inhibitory activities of the compound disclosed herein were determined by FRET using synthetic peptides labelled with both donor and acceptor fluorophores (Z-LYTE, Life Technologies, Paisley, UK).
(§2) The relevant enzyme (1000 ng/mL, 1400 ng/mL or 2000 ng/mL respectively, 2.5 μL) was incubated with the test compound (either 40 μg/mL, 12 μg/mL, 4 μg/mL, 1.2 μg/mL, 0.4 μg/mL, 0.12 μg/mL, 0.04 μg/mL, 0.012 μg/mL, 0.004 μg/mL or 0.0012 μg/mL, 2.5 μL each) for 2 h at RT. The FRET peptides (8 μM, 2.5 μL), and appropriate ATP solutions (2.5 μL, 800 μM for c-Src, and 60 μM ATP for HCK and Syk) were then added to the enzyme/compound mixtures and incubated for 1 h at RT. Development reagent (protease, 5 μL) was added for 1 h prior to detection in a fluorescence microplate reader (EnVision, Perkin Elmer).
(§3) In all cases, the site-specific protease cleaves non-phosphorylated peptide only and eliminates the FRET signal. Phosphorylation levels of each reaction were calculated using the ratio of coumarin emission (donor) over fluorescein emission (acceptor), for which low ratios indicate high phosphorylation and high ratios indicate low phosphorylation levels.

Syk = target: T2, Syk (Homo sapiens, UniProt P43405); test: Syk enzyme inhibition (Z-LYTE FRET); type: biochemical
T2 construct: purchased Life Technologies
Procedure: as §1, §2, §3

GSK 3α enzyme isoform = target: T3, GSK 3α enzyme isoform (Homo sapiens, UniProt P49840); test: GSK 3α enzyme inhibition (Z-LYTE FRET); type: biochemical; conditions: read-out: IC50 Values for Enzyme Inhibition GSK3α
T3 construct: purchased Life Technologies
Procedure: as §1
Development reagent (protease, 5 μL) was added for 1 h prior to detection in a fluorescence microplate reader (EnVision, Perkin Elmer).
as §3

p38MAPKγ (MAPK12) = target: T4, p38MAPKγ (MAPK12) (Homo sapiens, UniProt P53778); test: p38 MAPKγ enzyme inhibition (Z-LYTE FRET); type: biochemical
T4 construct: purchased Life Technologies
T4 sequence (P53778 1-367): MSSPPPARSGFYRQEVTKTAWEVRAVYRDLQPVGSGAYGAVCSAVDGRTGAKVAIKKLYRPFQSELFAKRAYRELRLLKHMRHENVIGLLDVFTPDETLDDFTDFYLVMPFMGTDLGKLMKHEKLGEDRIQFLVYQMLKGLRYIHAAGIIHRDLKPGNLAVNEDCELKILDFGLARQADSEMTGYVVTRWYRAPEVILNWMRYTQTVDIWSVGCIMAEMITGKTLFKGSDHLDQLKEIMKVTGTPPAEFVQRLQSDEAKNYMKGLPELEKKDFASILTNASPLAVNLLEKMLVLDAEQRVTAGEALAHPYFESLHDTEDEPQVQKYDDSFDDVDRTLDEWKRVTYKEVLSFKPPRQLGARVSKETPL
Procedure: as §1
The enzyme (800 ng/mL, 2.5 μL) was incubated with the test compound (2.5 μL at either 40 μg/mL, 12 μg/mL, 4 μg/mL, 1.2 μg/mL, 0.4 μg/mL, 0.12 μg/mL, 0.04 μg/mL, 0.012 μg/mL, 0.004 μg/mL or 0.0012 μg/mL) for 2 h at RT. The FRET peptides (8 μM, 2.5 μL), and appropriate ATP solution (2.5 μL, 400 μM) were then added to the enzymes/compound mixtures and incubated for 1 h at RT. Development reagent (protease, 5 μL) was added for 1 h prior to detection in a fluorescence microplate reader (EnVision, Perkin Elmer).
as §3

[1] = tested on: BEAS2B cells infected with human rhinovirus RV16; test: Rhinovirus-induced IL-8 release; type: cell-based; conditions: FIG. 9
Procedure: Human rhinovirus RV16 is obtained from the American Type Culture Collection (Manassas, Va.). Viral stocks are generated by infecting MRC5 cells with HRV until 80% of the cells were cytopathic.
BEAS2B cells are infected with HRV at an MOI of 1.2 and incubated for 1 h at 33° C. with gentle shaking for to promote absorption. The cells are then washed with PBS, fresh media added and the cells are incubated for a further 72 h. The supernatant is collected for assay of IL-8 concentrations using a Duoset ELISA development kit (R&D systems, Minneapolis, Minn.). Compounds are added 2 h before HRV infection and 1 h after infection when non-infected HRV is washed out.

c-Src = target: T5, c-Src (Homo sapiens, UniProt P12931); test: c-Src enzyme inhibition (Z-LYTE FRET); type: biochemical
T5 construct: purchased Life Technologies
Procedure: as §1, §2, §3

[2] = tested on: sputum macrophages from COPD patients; test: Cytokine production in LPS-treated sputum macrophages from COPD patients; type: cell-based; conditions: Homo sapiens, Macrophage; at 0.1 μg/mL; LPS 1 μg/mL, 18 h; read-out: Percent Inhibition IL-6
Procedure: Patients with COPD inhaled a nebulised solution of 3% (w/v) hypertonic saline using an ultrasonic nebuliser (Devilbiss, Carthage, Mo.) with tidal breathing for 5 min. This procedure was repeated a maximum of three times until enough sputum was obtained. The sputum samples were homogenized and mixed vigorously using a vortex mixer in 0.02% v/v dithiothreitol (DTT) solution. The samples were re-suspended in PBS (40 mL) followed by centrifugation at 1500 rpm at 4° C. for 10 min to obtain sputum cell pellets. The pellets were washed with PBS (40 mL). […]
Where appropriate, 1 μL of a solution containing either the test compound or reference article at the stated concentrations (either 0.1 μg/mL, 0.01 μg/mL, or 0.001 μg/mL) or alternatively 1 μL of DMSO as the vehicle control was added to each well (200 μL in media) and the cells were incubated for 2 h. […] After washing with 200 μL wash buffer per well, the beads were resuspended in sheath fluid (150 μL) and analyzed immediately. The level of each analyte in the supernatant was calculated using Xcel Fit software with a 4 or 5-parameter equation using each standard curve. The inhibitions of each cytokine production were calculated at each concentration by comparison with vehicle control.

T1 sequence (P08631 22-526): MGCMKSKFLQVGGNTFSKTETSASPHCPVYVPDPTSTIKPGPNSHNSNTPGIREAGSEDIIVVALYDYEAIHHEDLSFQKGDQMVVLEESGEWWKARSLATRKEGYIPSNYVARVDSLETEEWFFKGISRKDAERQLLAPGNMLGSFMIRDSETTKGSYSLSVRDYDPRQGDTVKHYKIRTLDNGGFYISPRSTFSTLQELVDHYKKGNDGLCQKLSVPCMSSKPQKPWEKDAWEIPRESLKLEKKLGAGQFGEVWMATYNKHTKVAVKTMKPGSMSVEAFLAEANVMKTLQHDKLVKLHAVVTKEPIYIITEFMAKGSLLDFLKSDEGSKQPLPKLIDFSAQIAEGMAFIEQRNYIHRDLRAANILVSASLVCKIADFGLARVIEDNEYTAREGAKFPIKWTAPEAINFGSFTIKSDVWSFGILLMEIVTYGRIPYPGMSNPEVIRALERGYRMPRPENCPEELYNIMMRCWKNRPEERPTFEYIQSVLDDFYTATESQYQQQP
T5 sequence (P12931 whole entry): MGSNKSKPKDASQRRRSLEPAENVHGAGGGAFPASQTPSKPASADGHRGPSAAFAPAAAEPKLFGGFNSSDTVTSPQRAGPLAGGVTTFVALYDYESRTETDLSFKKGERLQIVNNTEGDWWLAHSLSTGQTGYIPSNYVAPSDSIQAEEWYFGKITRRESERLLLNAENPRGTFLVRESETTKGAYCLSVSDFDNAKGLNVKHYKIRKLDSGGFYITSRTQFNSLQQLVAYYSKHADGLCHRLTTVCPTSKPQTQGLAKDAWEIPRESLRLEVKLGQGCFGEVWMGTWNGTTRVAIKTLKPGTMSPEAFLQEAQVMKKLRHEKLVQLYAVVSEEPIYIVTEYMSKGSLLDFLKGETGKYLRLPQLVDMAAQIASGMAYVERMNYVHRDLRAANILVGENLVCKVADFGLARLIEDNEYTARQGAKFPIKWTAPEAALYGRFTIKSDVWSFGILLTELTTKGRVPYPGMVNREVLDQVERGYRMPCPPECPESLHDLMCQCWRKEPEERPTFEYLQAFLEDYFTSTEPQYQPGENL
T3 sequence (P49840 whole entry, canonical isoform): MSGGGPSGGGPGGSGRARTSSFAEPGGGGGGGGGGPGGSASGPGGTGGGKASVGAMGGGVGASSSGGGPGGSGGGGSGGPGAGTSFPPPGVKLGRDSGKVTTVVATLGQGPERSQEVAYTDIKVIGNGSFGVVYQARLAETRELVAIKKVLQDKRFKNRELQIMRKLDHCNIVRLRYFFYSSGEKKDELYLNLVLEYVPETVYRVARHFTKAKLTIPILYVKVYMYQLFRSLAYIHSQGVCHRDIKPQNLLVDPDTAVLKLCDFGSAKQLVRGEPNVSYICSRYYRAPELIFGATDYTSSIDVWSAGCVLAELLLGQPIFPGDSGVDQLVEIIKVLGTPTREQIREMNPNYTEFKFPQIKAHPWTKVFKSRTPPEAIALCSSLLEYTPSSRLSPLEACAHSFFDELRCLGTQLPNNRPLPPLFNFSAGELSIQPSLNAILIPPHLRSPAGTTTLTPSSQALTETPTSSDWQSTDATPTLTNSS

CCc1cncc(Nc2cc(COc3ccc(NC(=O)Nc4cc(C(C)(C)C)nn4-c4ccc(C)cc4)c4ccccc34)ccn2)n1 [Compound of the invention, 1-(3-(tert-butyl)-1-(p-tolyl)-1H-pyrazol-5-yl)-3-(4-((2-((6-ethylpyrazin-2-yl)amino)pyridin-4-yl)methoxy)naphthalen-1-yl)urea] was tested, and the IC50 (Hck) was 55 nM, the IC50 (Syk) was > 16000 nM and the IC50 (GSK 3α enzyme isoform) was > 15100 nM. The IC50 (p38MAPKγ (MAPK12)) was 152 nM, the “inhibition of HRV-induced IL-8” value [1] was “dose-dependent inhibition” and the IC50 (c-Src) was 199 nM. For the same compound, the inhibition at 0.1 µg/mL [2] was 48 ± 9%.
